Publication PMC5075052, “Modulation of the Substitution Pattern of 5-Aryl-2-Aminoimidazoles Allows Fine-Tuning of Their Antibiofilm Activity Spectrum and Toxicity” (Antimicrobial Agents and Chemotherapy, 2016)
pIC50: −log10 of the molar value. Read-outs that look alike come from different tables or passages of the source.

Columns and labels:
[1] = test system: S. aureus SH1000; experiment: Monospecies bacterial biofilm inhibition, static peg assay; type: cell-based, Staphylococcus aureus
Method: (§1) A static peg assay, described previously ([27], [74]), was used for bacterial biofilm formation. The Calgary biofilm device consists of a platform carrying 96 polystyrene pegs (Nunc no. 445497) that fits as a microtiter plate lid, with 1 peg hanging into each microtiter plate well (Nunc no. 269789). Twofold serial dilutions of the compounds (dissolved in 100% dimethyl sulfoxide [DMSO] or ethanol) in 100 μl liquid broth (TSB diluted 1/20) per well were prepared in the microtiter plate in duplicate or triplicate with a maximum concentration of 1,600 μM and a minimum concentration of 0.8 μM. Subsequently, an overnight culture of S. Typhimurium ATCC 14028, P. aeruginosa PA14, E. coli TG1, S. epidermidis, S. aureus SH1000, or S. aureus ATCC 6538 (all grown in LB) was diluted 1:100 into TSB diluted 1/20 (or TSB for S. epidermidis, S. aureus SH1000, and S. aureus ATCC 6538), whereas overnight cultures of S. liquefaciens MG44 and B. cepacia LMG1222T were diluted 1:50 into TSB diluted 1/20. P. gingivalis ATCC 33277 cultures were diluted in TSB diluted 1/20 to have a final concentration of 1 × 10^8 cells/ml. Next, 100 μl was added to each well of the microtiter plate, resulting in a total volume of 200 μl medium per well (final concentration range of compounds, 800 μM [2% DMSO or ethanol] to 0.4 μM [0.001% DMSO or ethanol]). In the next step, the pegged lid was placed on the microtiter plate and the plate was incubated for 24 h or 48 h at 25°C or 37°C without shaking. At 37°C, the plates were placed in a sealed container with wet towels on the bottom to prevent evaporation of the growth medium. Biofilms of P. gingivalis ATCC 33277 were grown anaerobically at 37°C for 72 h. During this incubation period, biofilms were formed on the surface of the pegs. After incubation, the optical density at 600 nm (OD600) for the planktonic cells in the microtiter plate was measured using a Synergy MX multimode reader (BioTek, Winooski, VT). This gives a first indication of the effect of the compounds on planktonic growth. For quantification of biofilm formation, the pegs were washed once in 200 μl PBS. The remaining attached bacteria were stained for 30 min with 200 μl 0.1% (wt/vol) crystal violet in an isopropanol-methanol-PBS solution (1:1:18, vol/vol). Excess stain was rinsed off by placing the pegs in a 96-well plate filled with 200 μl distilled water per well. After air drying of the pegs (30 min), the dye bound to the adherent biofilm was extracted with 30% glacial acetic acid (200 μl per well of a 96-well plate). The optical density at 570 nm (OD570) of each well was measured using a Synergy MX multimode reader (BioTek, Winooski, VT). The concentration of each compound needed to inhibit biofilm formation by 50% (BIC50) and the concentration of each compound needed to inhibit planktonic growth by 50% (IC50) were determined from the concentration gradient by using nonlinear curve fitting (GraphPad Prism software, version 5; GraphPad Software, Inc., La Jolla, CA). In the same assay, the effect on planktonic growth was evaluated. The activity was considered biofilm specific if the BIC50 was at least two times lower than the IC50. Data represent the means from at least 3 technical repeats with the corresponding 95% confidence intervals (provided in the supplemental material).

[2] = test system: S. Typhimurium ATCC 14028; experiment: as above; type: cell-based, Salmonella enterica serovar Typhimurium; conditions: Salmonella enterica, S. Typhimurium ATCC 14028, 25°C
Method: as §1

[3] = test system: P. gingivalis ATCC 33277; experiment: Monospecies bacterial biofilm inhibition, static peg assay (anaerobic, 72 h); type: cell-based; conditions: Porphyromonas gingivalis, ATCC33277, P. gingivalis ATCC 33277, 37°C
Method: as §1

[4] = test system: bone marrow-derived mesenchymal stem cells (MSC); experiment: Mammalian cell viability assay, trypan blue staining; type: cell-based; conditions: 12.5 μM, 6 days of exposure
Method: (§2) The viability of two human primary cell types, namely, osteoblasts (OB) and bone marrow-derived mesenchymal stem cells (MSC), was tested according to the ISO 10993-5 standard, as previously described ([76]). Briefly, cells were seeded in 96-well tissue culture test plates (TPP; Trasadingen, Switzerland) at 5 × 10^3 cells/cm^2 in cell culture medium (advanced Dulbecco modified Eagle's medium [DMEM]) supplemented with 10% serum, 1× GlutaMAX, and 0.05 mg/ml gentamicin and were allowed to attach overnight. On the next day, the cells were exposed to (i) cell culture medium and medium with the corresponding control (0.5% ethanol or DMSO; negative controls), (ii) medium with 0.05% phenol (cytotoxic control), and (iii) medium with compounds (12.5 μM) and incubated for 2 h, 48 h, and 6 days (8 repeats for each condition). At each time point, the numbers of viable and dead cells were determined directly by trypan blue staining and indirectly by measuring metabolic activity with 3-(4,5-dimethylthiazol-2-yl)-2,5-diphenyltetrazolium bromide (MTT) staining.
(§3) The medium was removed from the wells, 1/3 trypan blue in DMEM was added to the cells, and the cells were incubated for 3 min, after which the trypan blue was removed and DMEM was added to the wells. In each of four wells, two microscopy fields were counted for viable (transparent) and dead (blue) cells.

[5] = test system: osteoblasts (OB); experiment: as above; type: cell-based; conditions: 12.5 μM, 6 days of exposure
Method: as §2, §3

[6] = test system: bone marrow-derived mesenchymal stem cells (MSC); experiment: Metabolic activity, MTT staining; type: cell-based; conditions: 12.5 μM, 6 days of treatment
Method: as §2
(§4) The medium was removed from the wells, and 100 μl of medium supplemented with 10% serum and 0.5 mg/ml MTT was added to the cells. The cells were incubated overnight at 37°C in 5% CO2. On the next day, the medium with MTT was removed and 100 μl acidic isopropanol was added. The cells were then centrifuged at 2,300 × g, and 50 μl of the supernatant was transferred to a new 96-well plate. The absorbance at 570 nm was measured, and the background at 660 nm was measured. Four wells per condition were examined.

[7] = test system: osteoblasts (OB); experiment: Metabolic activity, MTT staining; type: cell-based; conditions: 12.5 μM, 6 days of treatment
Method: as §2, §4

[8] = Staphylococcus aureus, SH1000, S. aureus SH1000, 37°C, read-out: BIC50
[9] = Staphylococcus aureus, SH1000, S. aureus SH1000, 37°C, read-out: IC50 (planktonic growth)
[10] = read-out: IC50 (planktonic growth)

| Structure (SMILES) | pIC50 [1, 8] | pIC50 [1, 9] | pIC50 ([2]; read-out: BIC50) | pIC50 ([3]; read-out: BIC50) | pIC50 [3, 10] | proliferation of MSC (trypan blue) [4] | proliferation of OB (trypan blue) [5] | metabolic activity of MSC (MTT) compared to solvent control [6] | metabolic activity of OB (MTT) compared to solvent control [7] | also measured |
| --- | --- | --- | --- | --- | --- | --- | --- | --- | --- | --- |
| CCCCCn1c(-c2ccccc2)cnc1N [Compound 1] | 3.79 | < 3.40 | 4.32 | 4.88 | 4.49 | – | – | – | – | – |
| CCCCCCCCn1c(-c2ccc(Cl)cc2)cnc1N [Compound 2] | 5.22 to 5.70 | 5.08 | ~5.23 | 5.41 | 5.22 | – | – | – | – | pIC50 ([1]; S. aureus SH1000, 37°C, read-out: BIC50): 5.47 |
| CC(C)CNc1ncc(-c2ccc(Cl)cc2)[nH]1 [Compound 3] | 3.70 | 3.76 | 5.70 | 5.28 | 5.29 | – | – | – | – | – |
| CCCCNc1ncc(-c2ccc(Br)cc2)[nH]1 [Compound 4] | 4.18 | 4.05 | 5.15 | 5.43 | 5.09 | – | – | – | – | – |
| Clc1ccc(-c2cnc(NC3CCCC3)[nH]2)cc1 [Compound 5] | 4.15 | 4.15 | 5.36 | 5.24 | 5.40 | – | – | – | – | – |
| Brc1ccc(-c2cnc(NCCn3cc(C4CC4)nn3)[nH]2)cc1 [Compound 6] | < 3.40 | < 3.40 | 5.70 | 4.74 | 4.71 | – | – | – | – | pIC50 [2, 10]: 5.62 |
| CCCCCCCCn1c(-c2ccccc2)cnc1NCC(C)C [Compound 8a] | – | – | – | – | – | slightly reduced | slightly reduced | – | – | – |
| CCCCCCCCn1c(-c2ccc(Br)cc2)cnc1NCC(C)C [Compound 8c] | – | – | – | – | – | – | increase in proliferation | increased | increased | viability of OB (trypan blue) [5]: very slightly reduced |
| CCCCCCCCn1c(-c2ccc(Cl)c(Cl)c2)cnc1NCC(C)C [Compound 8d] | – | – | – | – | – | increase in proliferation | increase in proliferation | increased | increased | – |
| CCCCCCCCn1c(-c2ccccc2)cnc1NC1CCCC1 [Compound 8e] | – | – | – | – | – | slightly reduced | slightly reduced | – | – | – |
| CCCCCCCCn1c(-c2ccc(Cl)cc2)cnc1NC1CCCC1 [Compound 8f] | – | – | – | – | – | slightly reduced | – | – | – | – |
| CCCCCCCCn1c(-c2ccc(Br)cc2)cnc1NC1CCCC1 [Compound 8g] | – | – | – | – | – | slightly reduced | increase in proliferation | increased | increased | – |
| CCCCCCCCn1c(-c2ccc(Cl)c(Cl)c2)cnc1NC1CCCC1 [Compound 8h] | – | – | – | – | – | – | increase in proliferation | increased | increased | – |
